Values after ≈ are worked out from the molar mass of the structure shown. Square brackets hold non-standard residues; d marks the D form. Peptide text beside a SMILES is read from it.
Columns and labels:
[1] = system: Micrococcus Iuteus ATCC 9341; experiment: Antibacterial activity (MIC), growth inhibition in LB medium; format: cell-based, Micrococcus luteus; settings: 100% inhibition of growth after 18–20 h
Protocol: (viii) Antibacterial activity of the peptides. The antibacterial activity of the diastereomers was examined in sterile 96-well plates (Nunc F96 microtiter plates) in a final volume of 100 μL as follows: Aliquots (50 μl) of a suspension containing bacteria at a concentration of 10^6 Colony-Forming Units (CFU)/ml LB (Lauria broth) medium were added to 50 μL of water or 66% pooled normal human serum in PBS, containing the peptide in 2-fold serial dilutions. Growth inhibition was determined by measuring the absorbance at 492 nm with a Microplate autoreader E1309 (Bio-tek Instruments), following incubation for 18–20 h at 37° C. […] The bacteria used were: Escherichia coli D21, Pseudomonas aeruginosa ATCC 27853, Acinetobacter calcoaceticus Ac11, Salmonella typhimurium LT2, Bacillus megaterium Bm11, Micrococcus Iuteus ATCC 9341, Bacillus subtilis ATCC 6051.

[2] = system: Pseudomonas aeruginosa ATCC 27853; settings: 100% inhibition of growth after 18–20 h
Protocol: (viii) Antibacterial activity of the peptides.
Antibacterial activity of the mixtures was determined as described in Experimental procedures, section (xii).

[3] = CD spectroscopy, α-helix content; format: physicochemical; settings: CD in 40% TFE
Protocol: (vii) CD Spectroscopy. The CD spectra of the peptides were measured with a Jasco J-500A spectropolarimeter after calibrating the instrument with (+)-10-camphorsulfonic acid. The spectra were scanned at 23° C. in a capped, quartz optical cell with a 0.5 mm path length. Spectra were obtained at wavelengths of 250 to 190 nm. Eight scans were taken for each peptide at a scan rate of 20 nm/min. […] Fractional helicities (Greenfield and Fasman, 1969; Wu et al., 1981) were calculated as follows: [formula] where [θ]222 is the experimentally-observed mean residue ellipticity at 222 nm, and the values for [θ]^0222 and [θ]^100222, which correspond to 0% and 100% helix content at 222 nm, are estimated to be 2000 and 32000 deg·cm^2/dmole,
1.2 Determination of the secondary structure of the peptides. The secondary structures of the peptides 1, 8, 12, 14, were evaluated from their CD spectra in 40% TFE, a solvent that strongly promotes an α-helical structure, as described in Experimental Procedures, section (vii), and in PBS (35 mM phosphate buffer/0.15 M NaCl, pH 7.0).

[4] = Membrane permeation, diffusion potential assay; settings: dissipation of diffusion potential
Protocol: (xi) Membrane permeation induced by the peptides. Membrane permeation was assessed utilizing the diffusion potential assay (Loew et al., 1983; Sims et al., 1974) as previously described (Shai et al., 1991). In a typical experiment, in a glass tube, 4 μl of a liposomes suspension (final phospholipids concentration of 33 μM), in a K^+ containing buffer (50 mM K2SO4, 25 mM HEPES-SO4^−2, pH 6.8), was diluted in 1 ml of an isotonic K^+ free buffer (50 mM Na2SO4, 25 mM HEPES-SO4^−2, pH 6.8), and the fluorescent, potential-sensitive dye diS-C2-5 was then added. Valinomycin (1 μl of 10^−7 M) was added to the suspension in order to slowly create a negative diffusion potential inside the vesicles, which led to a quenching of the dye's fluorescence. Once the fluorescence had stabilized, which took 3–10 minutes, peptides were added. The subsequent dissipation of the diffusion potential, as reflected by an increase in fluorescence, was monitored on a Perkin Elmer LS-50B spectrofluorometer, with the excitation set at 620 nm, the emission at 670 nm, and the gain adjusted to 100%. The percentage of fluorescence recovery, Ft, was defined as: Ft=(It−I0/If−I0)×100 where I0=the initial fluorescence, If=the total fluorescence observed before the addition of valinomycin, and It=the fluorescence observed after adding the peptide at time t.
2.5.1 Membrane permeability induced by the peptides. […]

[5] = phosphatidylglycerol/phosphatidylcholine; Beschiaschvili and Seelig, 1990; cited from earlier work
Escherichia coli D21 = format: cell-based; settings: 100% inhibition of growth after 18–20 h
[6] = system: Acinetobacter calcoaceticus Ac11; format: cell-based; settings: 100% inhibition of growth after 18–20 h
Bacillus megaterium Bm11 = format: cell-based; settings: 100% inhibition of growth after 18–20 h
[7] = system: Bacillus subtilis ATCC 6051; format: cell-based; settings: 100% inhibition of growth after 18–20 h
[8] = system: human red blood cells (hRBC); experiment: Hemolysis of human red blood cells; format: cell-based
Procedure, shortened: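 Washed fresh erythrocytes at 5% v/v final in PBS pH 7.3 exposed to peptide 30 min at 37° C with agitation. Hemoglobin release read as supernatant absorbance at 540 nm after centrifugation, scaled between PBS (0%) and 1% Triton (100%).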

[9] = system: Candida albicans (IP886-65); experiment: Antifungal activity (MIC); format: cell-based; settings: 100% inhibition of growth after 48 h at 30° C.
Protocol: (§1) The antifungal activity of the pardaxin-derived peptides 1 and 16 (see Example 1 above) was examined in sterile 96-well plates (Nunc F96 microtiter plates) in a final volume of 100 μL as follows: Fifty microliters of a suspension containing fungi at concentration of 1×10^6 Colony-Forming Units (CFU)/ml in culture medium (Sabouraud's glucose broth medium) was added to 50 μL of water containing the peptide in serial 2-fold dilutions in water. Inhibition of growth was determined by measuring the absorbance at 492 nm with a Microplate autoreader E1309 (Bio-tek Instruments), after an incubation time of 48 h at 30° C. […] The fungi used were: Candida albicans (IP886-65) and Cryptococcus neoformans (IP960-67).

[10] = system: Cryptococcus neoformans (IP960-67); experiment: Antifungal activity (MIC); format: cell-based; settings: 100% inhibition of growth after 48 h at 30° C.
Protocol: as §1

[11] = system: Leishmania mexicana NR strain promastigotes; experiment: Anti-Leishmania activity, counting living promastigotes; format: cell-based; settings: 100% death after 24 h of incubation
Protocol: The melittin-derived diastereomer peptide 20 (see Example 2 above) and the Leu/Lys diastereomer peptide 23 (see Example 3 above) were tested against Leishmania. Promastigotes of the Leishmania mexicana NR strain to be assayed were cultured at 27° C. in RPMI 1640 medium supplemented with 10% fetal bovine serum. Parasite were harvested by centrifugation at 1200×g for 10 min at 4° C. and washed twice with PBS (50 mM sodium phosphate, 150 mM NaCl, pH 7). The washed promastigotes were counted in a hemocytometer and adjusted to 1×10^6 parasites/ml. Aliquotes of this suspension were assayed in a final volume of 100 μl by counting living (motile) cells after 24 h of incubation at 26° C. in the absence or presence of various concentrations of the diastereomers.

Sendai virus (Z strain) = settings: no release of hemoglobin after incubation 37° C. 60 min
Protocol: Sendai virus (Z strain) was grown in the allantoic sac of 10–11 day old embryonated chicken eggs, harvested 48 h after injection and purified. The virus was resuspended in buffer composed of 160 mM NaCl, 20 mM tricine, pH 7.4, and stored at −70° C. Virus haemagglutinating activity was measured in haemagglutinating units (HAU). One microliter contained ˜60000 HAU. Fresh human blood was obtained from a blood bank and stored for up to 1 month at 4° C. Prior to use, erythrocytes were washed twice with PBS pH 7.2, and diluted to the desired concentration (% v/v) with the same buffer. Virions, erythrocytes and peptides were mixed in different orders of addition and various amounts. The final incubation was always at 37° C. for 60 min. followed by centrifugation at 5700 g for 10 min to remove intact cells. In all cases duplicate samples were used and two aliquots were taken from the supernatant of each sample to two wells of a 96-well plate. The amount of hemoglobin release was monitored by measuring the absorbance of the wells with the ELISA, plate reader at 540 nm. Antiviral activity was expressed as the minimal inhibitory concentration (MIC), the concentration at which no release of hemoglobin was observed after incubation.

[12] = system: human red blood cells (hRBC); settings: Oren and Shai, 1996; cited from earlier work

Compound: CC[C@H](C)[C@H](NC(=O)CN)C(=O)NCC(=O)N[C@@H](C)C(=O)N[C@H](C(=O)N[C@@H](CC(C)C)C(=O)N[C@@H](CCCCN)C(=O)N[C@H](C(=O)N[C@@H](CC(C)C)C(=O)N[C@H](C(=O)N[C@H](C(=O)NCC(=O)N[C@@H](CC(C)C)C(=O)N1CCC[C@H]1C(=O)N[C@@H](C)C(=O)N[C@@H](CC(C)C)C(=O)N[C@H](C(=O)N[C@@H](CO)C(=O)N[C@@H](Cc1c[nH]c2ccccc12)C(=O)N[C@H](C(=O)N[C@@H](CCCCN)C(=O)N[C@@H](CCCNC(=N)N)C(=O)N[C@@H](CCCCN)C(=O)N[C@@H](CCCNC(=N)N)C(=O)N[C@@H](CCC(N)=O)C(=O)N[C@@H](CCC(N)=O)C(N)=O)[C@@H](C)CC)[C@@H](C)CC)[C@@H](C)O)[C@@H](C)O)C(C)C)C(C)C [Melittin]
- Minimal Inhibitory Concentration M. luteus (ATCC 9341) [1]: 0.4 µM
- Minimal Inhibitory Concentration P. aeruginosa (ATCC 27853) [2]: 25 µM
- α-helix content [3]: 73%
- membrane permeating activity with PC (zwitterionic) vesicles [4]: highly active
- partition coefficient reported for melittin binding [5]: 4.5±0.6×10^4 M^−1

Compound: CC[C@H](C)[C@H](NC(=O)[C@H](CCCCN)NC(=O)[C@H]1CCCN1C(=O)[C@@H](NC(=O)[C@H](CC(C)C)NC(=O)[C@H](C)NC(=O)[C@H](Cc1ccccc1)NC(=O)[C@H](Cc1ccccc1)NC(=O)CN)[C@@H](C)CC)C(=O)N[C@H](C(=O)N[C@@H](CO)C(=O)N[C@@H](CO)C(=O)N1CCC[C@H]1C(=O)N[C@@H](CC(C)C)C(=O)N[C@@H](Cc1ccccc1)C(=O)N[C@@H](CCCCN)C(=O)N[C@H](C(=O)N[C@H](CC(C)C)C(=O)N[C@H](CC(C)C)C(=O)N[C@@H](CO)C(=O)N[C@@H](C)C(=O)N[C@H](C(=O)NCC(=O)N[C@@H](CO)C(=O)N[C@@H](C)C(=O)N[C@@H](CC(C)C)C(=O)N[C@@H](CO)C(=O)N[C@@H](CO)C(=O)N[C@@H](CO)C(=O)NCC(=O)NCC(=O)N[C@@H](CCC(N)=O)C(=O)N[C@@H](CCC(=O)NCCN)C(=O)NCCN)C(C)C)[C@@H](C)O)[C@@H](C)CC [Peptide 1, [D]P^7L^18L^19-TApar]
- Minimal Inhibitory Concentration E. coli (D21) (Escherichia coli D21): 6 µM
- Minimal Inhibitory Concentration A. calcoaceticus (Ac11) [6]: 6 µM
- Minimal Inhibitory Concentration B. megaterium (Bm11) (Bacillus megaterium Bm11): 0.9 µM
- Minimal Inhibitory Concentration M. luteus (ATCC 9341) [1]: 12.5 µM
- Minimal Inhibitory Concentration B. subtilis (ATCC 6051) [7]: 3 µM
- % hemolysis at 50 μM peptide ([8]; hRBC, 50 μM peptide, 30 min at 37° C.): 5%
- hemolytic activity up to the maximum concentration tested ([8]; hRBC, up to 50 μM): practically devoid of hemolytic activity
- Minimal Inhibitory Concentration Candida albicans (IP886-65) [9]: 35 µM
- Minimal Inhibitory Concentration Cryptococcus neoformans (IP960-67) [10]: 50 µM

Compound: CC(C)C[C@H](NC(=O)[C@H](CCCCN)NC(=O)[C@@H](CC(C)C)NC(=O)[C@@H](CC(C)C)NC(=O)[C@H](CC(C)C)NC(=O)[C@@H](N)CCCCN)C(=O)N[C@@H](CC(C)C)C(=O)N[C@H](CC(C)C)C(=O)N[C@@H](CCCCN)C(=O)N[C@H](CC(C)C)C(=O)N[C@@H](CC(C)C)C(=O)N[C@@H](CCCCN)C(N)=O [Peptide 23, [D]-L^3,4,8,10-K4L8] (H-KL[dL][dL]KLL[dL]K[dL]LK-NH2)
- hemolytic activity in comparison to melittin (fold less) [8]: > 100 fold
- % hemolysis at 100 μM ([8]; red cells of human, 100): 0%
- MIC Leishmania mexicana [11]: 17 µM (≈ 24.4 µg/mL)
- MIC Sendai virus (Sendai virus (Z strain)): 80 µM (≈ 115 µg/mL)

Compound: Pardaxin
- hemolytic activity towards human erythrocytes relative to melittin (fold less) [12]: 40–100 fold

— US7001983B1, “Antipathogenic synthetic peptides and compositions comprising them” (priority 1997, dated 2006)
